Measurements taken from US20060264402A1, “Pest control formulation” (Redline, Inc., priority 2003, published 2006).

System: human skin
Assay: Parasthesia irritation screening: one-gram drop placed on human skin, Parasthesia Irritation Rating (PIR)
Assay type: in vivo
Parameters: key: 0 = no discomfort, 4 = slight, 8 = noticeable, 12 = severe
Experimental: 1. Different ratios of active ingredient to IDPP are prepared for evaluation.
2. A one-gram drop of the ratio is placed on human skin. Only one drop is evaluated within a 24-hour period.
3. Irritation or sensitivity values are assigned according to the following scale (“Parasthesia Irritation Rating” or “PIR”): • 12=Severe • 8 =Noticeable discomfort • 4 =Slight discomfort • 0=No discomfort
4. If irritation is severe or noticeable at any time within a 24-hour period, the skin is washed and 5% lidocaine solution is applied to lessen discomfort.

[1] = ratio active agent:IDPP 0.67:1.00, within 24-hour period

SMILES | Parasthesia Irritation Rating (active agent 1.00 without IDPP (—), within 24-hour period) | Parasthesia Irritation Rating [1] | Parasthesia Irritation Rating (ratio active agent:IDPP 1.00:1.00, within 24-hour period) | Parasthesia Irritation Rating (ratio active agent:IDPP 1.50:1.00, within 24-hour period) | Parasthesia Irritation Rating (ratio active agent:IDPP 0.18:1.00, within 24-hour period) | Parasthesia Irritation Rating (ratio active agent:IDPP 0.21:1.00, within 24-hour period) | Parasthesia Irritation Rating (ratio active agent:IDPP 0.25:1.00, within 24-hour period) | Parasthesia Irritation Rating (ratio active agent:IDPP 0.33:1.00, within 24-hour period) | Parasthesia Irritation Rating (ratio active agent:IDPP 0.43:1.00, within 24-hour period)
CC(C)=CC1C(C(=O)OC(C#N)c2cccc(Oc3ccccc3)c2)C1(C)C (stereo not shown) [Cyphenothrin] | 12.00 | 0.00 | 0.00 | 4.00 | – | – | – | – | –
CC1(C)C(C=C(Cl)Cl)C1C(=O)OC(C#N)c1cccc(Oc2ccccc2)c1 (stereo not shown) [Cypermethrin] | – | 12.00 | – | – | 0.00 | 0.00 | 4.00 | 12.00 | 12.00
